According to patent publication US20230227392A1, “A APPLICATION OF CYATHANE DITERPENOIDS IN PREPARATION OF DRUGS FOR TREATING NEUROINFLAMMATION” (Northwest A&F University, priority 2022, published 2023):
Entries after “also recorded” stand apart in the source; their conditions may differ.

Tests used:
Type in all cases: cell-based, mouse
LPS-induced BV-2 cells [1] = assay: M1/M2 marker cytokine secretion by ELISA; details: for production of IL-1β / production of IL-6 / production of IL-10 / production of TNF-α: 3 and 10 μM, 1 h pretreatment then LPS 24 h, effect enhanced as concentration increases, FIG. 4
Description: To further evaluate the role of 1 and 6 in M1 polarization of the LPS-induced microglia, the release of pro-inflammatory M1 cytokines (including TNF-α, IL-6 and IL-1β) and anti-inflammatory M2 cytokines (including IL-10) in the LPS-induced BV-2 cells was detected by ELISA. The BV-2 cells were incubated in a 6-well plate (2 mL/well) at a density of 2×10^5 cfu, cultured in a constant-temperature incubator of 5% CO2 at 37° C. for 24 h, then pretreated with different concentrations of compounds 1 and 6 (3 μM, 10 μM), LPS (1 μg/mL) and DMSO for 1 h, and then induced by the LPS for 24 h. Supernatant of the cell culture medium was collected, and the concentrations of TNF-α, IL-6, IL-10 and IL-1β were measured according to manufacturer's instructions.

LPS-induced BV-2 cells [2] = assay: mRNA levels of M1/M2 biomarkers by qRT-PCR; details: FIG. 3; for mRNA expression of COX-2 induced by the LPS / mRNA level of IL-10: 10 μM / tested concentration; for mRNA expression of IL-6 induced by the LPS / mRNA level of ARG-1: 10 μM; for mRNA expression of TNF-α induced by the LPS: 1 at 10 μM; for mRNA level of IL-10 / mRNA level of ARG-1: M2 marker
Description: In order to detect the regulation of M1/M2 phenotype switch by 1 and 6, the effects on the mRNA expression of representative M1 and M2 biomarkers in the LPS-stimulated BV-2 cells were evaluated. The cells were incubated into a 6 cm of culture dish (5 mL/dish) at a density of 2×10^5 cfu, and cultured in a constant-temperature incubator of 5% CO2 at 37° C. for 12 h. According to the manufacturer's instructions, total RNA was extracted by Trizol, and concentration and purity thereof were measured by a UV-Vis spectrophotometer. 2 μg of isolated RNA was reversely transcribed into cDNA by Prime Script RTMaster Mix kit. By using a Syr Green quantitative RT-PCR kit, an mRNA level was evaluated by qRT-PCR response. β-actin was used as an internal standard. The primer sequences are as follows (Table 1).

LPS-induced BV-2 cells [3] = assay: M1/M2 marker protein expression by Western blotting; details: FIG. 5; for M1/M2 polarization of the LPS-induced BV-2 cells: conclusion from marker expression
Description: The protein expression of iNOS, COX-2(M1 marker) and ARG-1(M2 marker) was analyzed by Western blotting. The BV-2 cells (5×10^5 cfu) cultured in a 6 cm dish were pretreated with 1 or 6 ([…]) respectively for 1 h, and then 1 μg/ml LPS was added for 24 h. The cells were lysed in an ice-cold RIPA lysis buffer with a mixed solution of 10 mM of PMSF and 1% of protein inhibitors. The cytosol lysate was centrifuged at 4° C. at 12000 rpm for 30 minutes. Total protein was isolated from the lysate and their concentration was determined by BCA.
A sample was separated by 8%-12% SDS-PAGE and transferred to a […] PVDF membrane. The membrane was blocked with 5% BSA in TBST (20 mM of Tris-HCl, 150 mM of NaCl, 0.1% of Tween-20) for 1 h at room temperature, and then incubated with appropriate primary antibodies: anti-β-tubulin (1:1000), anti-GAPDH (1:1000), anti-iNOS (1:500), anti-COX-2 (1:1000) and anti-ARG-1 (1:500) at 4° C. overnight. The membrane was washed in the TBST for 3×5 minutes, and then incubated with the secondary antibody bound to appropriate peroxidase (HRP) and left at room temperature for 1 h. The blot was washed in the TBST for 3×5 minutes and exposed to an ECL chemiluminescence reagent. At last, the signal was detected by the Bio-Rad ChemiDoc XRS+ system.

[4] = tested on: LPS-induced BV-2 microglia; assay: Inhibition of nitric oxide (NO) production, Griess method; details: 1 μg/mL LPS + 10 μM compound, 24 h, FIG. 2
Description: The mouse microglia (BV-2) were cultured in the DMEM culture medium containing 10% of fetal bovine serum (FBS) and 1% of antibiotics (100 U/mL of […] and penicillin) at 37° C. in the incubator of 5% CO2.
NO is an important inflammatory mediator. Excessive production of NO is common in neurons and glial cells of brains with ND^[8]. Griess reagent was configured to evaluate the influence on NO production in order to measure the anti-inflammatory effects of sarcodonin A and its derivative in LPS-induced BV-2 microglia. Before adding the detection reagent, BV-2 cells (2×10^5/mL) were incubated in the 96-well plate and cultured at 37° C. for 24 h. The experimental groups were divided into a control group (DMSO), an LPS-treated group ([…] of LPS) and a compound-treated group (1 μg/mL of LPS+10 μM compound), and then incubation was performed for 24 h. The nitrite concentration in the culture medium was measured by a commercial analysis kit. The main principle was based on the griess method. Supernatant of the BV-2 cells (50 μL) reacted with the griess reagent (50 μL of griess regent I and 50 μL of griess regent II). The absorbance was measured at 540 nm on the Bio-Tek micropore plate reader, and the nitrite concentration was calculated by a nitrite standard curve with sodium nitrite as the standard.
The inhibition rate %=(ALPS−Acompound)/(ALPS−Ablank)×100;

LPS-induced BV-2 cells [5] = assay: Nuclear translocation of NF-κB subunit p65 by Western blotting; details: Western blot of nuclear and cytoplasmic parts
From the text: The nuclear translocation of NF-κB subunit p65 as an activation index of NF-κB is examined. The cells were collected in the same way for Western blotting. A extraction kit is configured to isolate and extract nuclear and cytoplasmic parts according to the instructions. The primary antibodies are anti-NF-κB p65 (1:1000), anti-Lamin B1 (1:1000) and anti-GAPDH (1:1000).

[6] = tested on: LPS-induced BV-2 microglia; assay: MAPK phosphorylation (ERK1/2, JNK, p38 MAPK) by Western blotting; details: Western blot, 1 h pretreatment then LPS 1 μg/mL 30 min; FIG. 6
Description: Previous studies have shown that the over-activation of MAPK signaling cascade is related to neuroinflammatory reaction^[9-10]. In order to clarify the action mode of 6 in reversing the M1 polarization of the microglia, the effects of 6 on phosphorylation levels of ERK1/2, […] and p38 MAPK in the LPS-induced BV-2 microglia are further studied. BV-2 cells (5×10^5 cfu) cultured in a 6 cm dish are pretreated with compound 1 or 6 ([…]) respectively for 1 h, and then added with the LPS (1 μg/mL) for 30 min. The similar method is used by Western blotting, and the primary antibodies are: […] (1:1000), anti-GAPDH (1:1000), anti-ERK1/2 (1:1000), anti-phosphorylated ERK1/2 (1:1000), anti-p38 MAPK (1:2000), anti-phosphorylated p38 MAPK (1:1000), anti-JNK (1:2000) and anti-phosphorylated JNK (1:1000).

[7] = Western blot, 1 h pretreatment then 1 μg/ml LPS 24 h

| SMILES | production of IL-1β (LPS-induced BV-2 cells [1]) | production of IL-6 (LPS-induced BV-2 cells [1]) | production of IL-10 (LPS-induced BV-2 cells [1]) | production of TNF-α (LPS-induced BV-2 cells [1]) | mRNA expression of COX-2 induced by the LPS (LPS-induced BV-2 cells [2]; M1 marker) | mRNA expression of IL-6 induced by the LPS (LPS-induced BV-2 cells [2]; M1 marker) | mRNA expression of TNF-α induced by the LPS (LPS-induced BV-2 cells [2]; M1 marker) | mRNA level of IL-10 (LPS-induced BV-2 cells [2]) | mRNA level of ARG-1 (LPS-induced BV-2 cells [2]) | protein expression of ARG-1 (LPS-induced BV-2 cells [3]; [7]) | protein expression of LPS-induced iNOS (LPS-induced BV-2 cells [3]; [7]) | M1/M2 polarization of the LPS-induced BV-2 cells (LPS-induced BV-2 cells [3]) | inhibition of NO production (in words) [4] | also measured |
| --- | --- | --- | --- | --- | --- | --- | --- | --- | --- | --- | --- | --- | --- | --- |
| CC(CO)C1=C2C3=CC=C(C=O)C[C@H](O)[C@]3(C)CC[C@@]2(C)CC1 (some centres unmarked) [Compound 1, sarcodonin A] | inhibitory effect | inhibitory effect | promoting effect | inhibitory effect | does not affect | inhibits | inhibits | does not affect | enhance | promotes | inhibits | inhibit the M1 polarization and enhance M2 polarization | can inhibit | – |
| CC(COC(=O)c1ccccc1Cl)C1=C2C3=CC=C(C=O)CC(O)C3(C)CCC2(C)CC1 (centres unmarked) [Compound 3] | – | – | – | – | – | – | – | – | – | – | – | – | higher inhibitory activity | – |
| CC(COC(=O)c1ccccc1Br)C1=C2C3=CC=C(C=O)CC(O)C3(C)CCC2(C)CC1 (centres unmarked) [Compound 4] | – | – | – | – | – | – | – | – | – | – | – | – | higher inhibitory activity; also recorded: highest inhibitory activity in o-halogen-substituted 19-O-benzoyl derivatives | – |
| CC(COC(=O)c1ccc(Br)cc1)C1=C2C3=CC=C(C=O)CC(O)C3(C)CCC2(C)CC1 (centres unmarked) [Compound 6] | inhibitory effect | inhibitory effect | promoting effect | inhibitory effect | inhibits | inhibits | inhibits | promotes | promotes | more obvious promoting effect | more obvious inhibitory effect | inhibit the M1 polarization and enhance M2 polarization | higher inhibitory activity; also recorded: strongest activity | comparison of effect on cytokine production at the same concentration (LPS-induced BV-2 cells [1]; IL-6, IL-1β, TNF-α, IL-10, FIG. 4): more effective than 1; mRNA expression of IL-1β induced by the LPS (LPS-induced BV-2 cells [2]; M1 marker): inhibits; mRNA expression of iNOS induced by the LPS (LPS-induced BV-2 cells [2]; M1 marker): inhibits; protein expression of COX-2 (LPS-induced BV-2 cells [3]; [7]): more obvious inhibitory effect; inhibitory activity on NO production (inhibition rate) ([4]; compared with the LPS control group): 55%; LPS-stimulated nuclear translocation of NF-κB p65 (LPS-induced BV-2 cells [5]): significantly inhibits; activation (phosphorylation) of ERK1/2 induced by the LPS [6]: significantly inhibits; activation (phosphorylation) of INK induced by the LPS [6]: significantly inhibits; phosphorylation of p38 MAPK [6]: little effect |
| CC(=O)OCC(C)C1=C2C3=CC=C(C=O)CC(OC(C)=O)C3(C)CCC2(C)CC1 (centres unmarked) [Compound 7] | – | – | – | – | – | – | – | – | – | – | – | – | strong inhibitory effect similar to that of 6 | – |
